We go through 2 molecules from publication PMC10840709 (Cell chemical biology, 2023).

One assay has as its target CSNK2A2 (Homo sapiens, UniProt P19784). The assay can be described thus: HotSpot […]-ATP kinase assay. In kind it is biochemical.
The next assay has as its target BRAF V600E (Homo sapiens, UniProt P15056, V600E). The assay can be described thus: NanoBRET target engagement in HEK293 cells. Format: cell-based. For orientation: BRET reads energy transfer from a luciferase to a nearby fluorophore.
Another assay has as its target BRAF (Homo sapiens, UniProt P15056). The assay can be described thus: HotSpot […]-ATP kinase assay. Format: biochemical.

Sequence of CSNK2A2 (P19784 whole entry): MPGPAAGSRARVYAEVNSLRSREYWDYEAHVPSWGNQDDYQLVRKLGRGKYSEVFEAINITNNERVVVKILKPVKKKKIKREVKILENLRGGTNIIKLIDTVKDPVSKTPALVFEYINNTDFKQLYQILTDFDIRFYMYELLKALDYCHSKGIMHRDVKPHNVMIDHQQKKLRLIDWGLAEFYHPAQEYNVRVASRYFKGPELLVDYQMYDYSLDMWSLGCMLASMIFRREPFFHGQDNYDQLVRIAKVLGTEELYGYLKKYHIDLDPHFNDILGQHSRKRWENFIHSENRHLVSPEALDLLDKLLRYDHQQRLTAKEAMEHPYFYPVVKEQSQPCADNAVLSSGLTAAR
Sequence of BRAF V600E (P15056 2-766 V600E): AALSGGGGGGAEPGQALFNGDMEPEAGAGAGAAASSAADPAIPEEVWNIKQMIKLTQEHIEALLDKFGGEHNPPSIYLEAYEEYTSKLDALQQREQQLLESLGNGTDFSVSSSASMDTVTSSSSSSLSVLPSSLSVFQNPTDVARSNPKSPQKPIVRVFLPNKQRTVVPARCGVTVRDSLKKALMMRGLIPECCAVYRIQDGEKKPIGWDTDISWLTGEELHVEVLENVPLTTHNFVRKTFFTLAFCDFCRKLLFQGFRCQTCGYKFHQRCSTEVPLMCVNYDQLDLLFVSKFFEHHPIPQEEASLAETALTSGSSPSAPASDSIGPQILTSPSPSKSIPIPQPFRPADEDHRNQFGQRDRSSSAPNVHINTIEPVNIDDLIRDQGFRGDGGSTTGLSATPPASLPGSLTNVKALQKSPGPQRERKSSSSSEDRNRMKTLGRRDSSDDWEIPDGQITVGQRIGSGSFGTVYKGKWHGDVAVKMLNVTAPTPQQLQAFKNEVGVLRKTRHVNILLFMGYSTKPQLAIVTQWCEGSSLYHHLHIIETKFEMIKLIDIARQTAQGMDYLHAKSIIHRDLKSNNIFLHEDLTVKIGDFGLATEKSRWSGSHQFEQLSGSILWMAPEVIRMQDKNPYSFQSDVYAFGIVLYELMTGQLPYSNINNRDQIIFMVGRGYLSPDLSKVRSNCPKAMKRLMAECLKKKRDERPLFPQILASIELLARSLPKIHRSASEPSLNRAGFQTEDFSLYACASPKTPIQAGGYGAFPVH
Sequence of BRAF (P15056 2-766): as the sequence (P15056 2-766 V600E) above, with E599V counted along it

For the molecule `CCN1CCN(Cc2ccc(Nc3ncc(F)c(-c4cc(F)c5nc(C)n(C(C)C)c5c4)n3)nc2)CC1` [abemaciclib], on CSNK2A2, the IC50 – broadly, the point on the concentration scale where inhibition reaches its midpoint – worked out at 36.4 nM.
Regarding `Cc1ccc(NC(=O)c2ccc(CN3CC[C@H](N(C)C)C3)c(C(F)(F)F)c2)cc1Nc1nccc(-c2cncnc2)n1` [bafetinib], the values for the IC50 against BRAF V600E and against BRAF were 217 nM and 41.6 nM, respectively.
